Patent publication US20180327364A1, “MTOR INHIBITORS AND METHODS OF USE THEREOF” (Brandeis University, priority 2015, published 2018)

Columns and labels:
Format in all cases: cell-based
firefly luciferase [1] = experiment: Luciferase assay in stably transduced luciferase HEK-293T cells; conditions: for wild type luciferase signal: HEK-293T cells expressing HA-luciferase, 100 μM, 4 h; for luciferase levels / activity, inhibitor alone: 100 μg/mL cycloheximide or 6 μM bortezomib
Procedure: Firefly luciferase and firefly luciferase-eDHFR were cloned into pBABE-puro vector which was a gift from Hartmut Land & Jay Morgenstern & Bob Weinberg (Addgene plasmid #1764). pBABE-puro-luciferase was co-transfected with VSV-G into GP2-293 cells (Retro-X Universal Packaging System, Clonetech, Mountain View, Calif.) with TransIT-2020 (MirusBio) according to TransIT-2020's manufacture's protocol. After 48 h, viral supernatant was harvested, spun down, filtered with a […] syringe filter, and added to HEK-293T supplemented with 8 μg/mL polybrene. After 4 h of infection, the media was replaced with fresh media. 48 h later, media was replaced with media containing 3 μg/mL puromycin. Media was replaced with fresh media containing puromycin every 3-4 days. After 2 weeks of puromycin selection, the cells were grown out from single cell colonies and screened for luciferase expression.
Stably transduced luciferase HEK-293T cells were plated in 96-well plates 24 h prior to treatment with 100 μM of Cbz-B3A, amine-B3A, acetyl-B3A, and Cbz-acetyl. After 4 h, cells were harvested and measured with Luciferase Assay System with Reporter Lysis Buffer from Promega according to the manufacturer's protocol. Before the addition of luciferin, protein concentration was measured by removing 2 μl of lysate from each well and adding it to diluted Bio-Rad Protein Assay Dye Reagent Concentrate, and the absorbance was measured at OD595. The protein concentration was used to normalize luciferase signal. For translation assays, cells were pretreated for 15 min with 100 μg/mL cycloheximide or 6 μM bortezomib. For the recombinant luciferase assay, Quantilum Recombinant Luciferase (Promega) was diluted 1:250,000 in reporter lysis buffer with 1 mg/mL BSA then mixed 1:1 with 200 μM compound in the same buffer for a final dilution of 1:500,000 and 100 μM compound in 20 μL. This was incubated for 10 min at room temperature then measured with Luciferase Assay System with Reporter Lysis Buffer from Promega according to the manufacturer's protocol.

[2] = tested on: 4EBP1 phosphorylation by mTORC1; experiment: 4EBP1 phosphorylation immunoblot in HEK-293T cells
Procedure: (§1) Quantification of western blots was performed with ImageJ. Cells were lysed in RIPA buffer (1% NP-40, 1% NaDeoxycholate, 0.1% SDS, 10 mM TrisCl, 10 mM β-glycerophosphate, 10 mM Na pyrophosphate, 50 mM NaF, 200 μM Na vanadate, 1 mM EDTA, 500 μM EGTA, 1% benzonase, and supplemented with complete (Roche Diagnostics) protease inhibitors).

firefly luciferase [3] = experiment: Luciferase assay in stably transduced luciferase HEK-293T cells; conditions: HEK-293T luciferase-eDHFR and wild-type luciferase cells; 200 TMP-B3A (unit not given) vs DMSO
[4] = tested on: protein translation in HEK-293T cells; experiment: 35S-methionine/cysteine incorporation translation assay; conditions: saturating concentration (Cbz-B3A 10 μM); 4 h treatment then 1 h labeling
Procedure: 80,000 cells/well of HEK-293T cells were plated into 24 well plates 24 h before the assay. Cells were treated with indicated concentration of compound for 4 h. After 4 h, the media was removed and replaced with DMEM without methionine and cysteine (Lifetechnologies) supplemented with 0.2 mCi/mL EXPRESS [^35S] protein labeling mix (PerkinElmer), 10% dialyzed FBS (Pierce), 1× glutaMax (Gibco), 100 U/mL penicillin 100 μg/mL streptomycin (Gibco), 1 mM sodium pyruvate (Lifetechnologies), and the indicated concentration of compound. After 1 h, this media was removed, cells were washed with ice cold PBS, and lysed with low deoxycholate RIPA buffer (10 mM Tris-Cl, 1% NP-40, 0.5% Na Deoxycholate, 0.1% SDS, 140 mM NaCl, 1 mM EDTA, 500 μM EGTA, 1× Roche Complete protease inhibitors, 1:100 Benzonase, and at pH 8.0). Lysate was centrifuged at maximum speed for 20 m at 4° C. The concentration was measured by Bradford assay. 10 μg of lysate was added to […] ice cold 1 mg/mL BSA with 0.02% Na Azide. 1 mL of ice cold 10% TCA was added, the solutions were mixed and incubated on ice for 0.5 h. These mixtures were vacuum filtered onto GF/C Whatman glass microfiber filters. The filters were washed with 2×5 mL of 10% TCA, then 2×3 mL ethanol. The filters were then dried for a 0.5 h. The filters were placed into scintillation vials with 5 mL of scintillation fluid and read on a scintillation counter.

eIF2α = eIF2α phosphorylation immunoblot in HEK-293T cells; conditions: 1 h; tunicamycin 5 μg/mL, thapsigargin 500 nM; compared with vehicle
Procedure: as §1

## CC(C)(C)OC(=O)/N=C(\NCCC[C@H](NC(=O)OC(C)(C)C)C(=O)NCCCCCCN)NC(=O)OC(C)(C)C [Amine-B3A]
Firefly luciferase [1]
  wild type luciferase signal: decreased the wild type luciferase signal

## CC(C)C[C@H](NC(=O)[C@H](Cc1ccccc1)NC(=O)c1cnccn1)B(O)O [Bortezomib, reference compound]
Firefly luciferase [1]
  luciferase levels / activity, inhibitor alone: decreased luciferase levels

## CC(=O)NCCCCCCNC(=O)OCc1ccccc1 [Cbz-acetyl]
Firefly luciferase [1]
  wild type luciferase signal: not reduced
[2]; Cbz-B3A 10 μM, Cbz-acetyl 10 μM, rapamycin 20 nM, 4 h
  4EBP1 phosphorylation (hyper- vs hypo-phosphorylated band): No shift

## CC(C)(C)OC(=O)/N=C(/NCCCC(NC(=O)OC(C)(C)C)C(=O)NCCCCNC(=O)OCc1ccccc1)NC(=O)OC(C)(C)C (centres unmarked) [JX-8]
[2]; 20 μM, 3 h, anti-4EBP1 western blot
  4EBP1 phosphorylation, comparison with Cbz-B3A: more potent mTOR inhibitor than CB3A

## COc1cc(Cc2cnc(N)nc2N)cc(OC)c1OCC(=O)NCCCCCCNC(=O)[C@H](CCCN/C(=N\C(=O)OC(C)(C)C)NC(=O)OC(C)(C)C)NC(=O)OC(C)(C)C [TMP-B3A]
Firefly luciferase [3]
  luciferase signal: reduced luciferase signal to similar levels in both luciferase-eDHFR and wild-type luciferase cells

## CC(=O)NCCCCCCNC(=O)[C@H](CCCN/C(=N\C(=O)OC(C)(C)C)NC(=O)OC(C)(C)C)NC(=O)OC(C)(C)C [acetyl-B3A]
Firefly luciferase [1]
  wild type luciferase signal: decreased the wild type luciferase signal

## C[C@@H]1C[C@@H]([C@H](O)CC2CC(=O)NC(=O)C2)C(=O)[C@@H](C)C1 [cycloheximide, reference compound]
Firefly luciferase [1]
  luciferase levels / activity, inhibitor alone: luciferase activity decreased

## CO[C@H]1C[C@@H]2CC[C@@H](C)[C@@](O)(O2)C(=O)C(=O)N2CCCC[C@H]2C(=O)O[C@H]([C@H](C)C[C@@H]2CC[C@@H](O)[C@H](OC)C2)CC(=O)[C@H](C)/C=C(\C)[C@@H](O)[C@@H](OC)C(=O)[C@H](C)C[C@H](C)/C=C/C=C/C=C/1C [rapamycin, reference compound]
[4]
  maximal inhibition of translation (35S-methionine/cysteine incorporation): 35%

## C/C=C(/C)C(=O)O[C@H]1C(C)=C2[C@H]([C@@H]1OC(=O)CCCCCCC)[C@@](C)(OC(C)=O)C[C@H](OC(=O)CCC)[C@@]1(O)[C@H]2OC(=O)[C@@]1(C)O [thapsigargin]
eIF2α
  eIF2α phosphorylation: increased phosphorylation of eIF2α

## tunicamycin
eIF2α
  eIF2α phosphorylation: increased phosphorylation of eIF2α
